Data taken from EP4570805A1, “TRICYCLIC COMPOUNDS AND MEDICAL USE THEREOF” (Chia Tai Tianqing Pharmaceutical Group Co., Ltd., priority 2022, dated 2024).

Tests used:
AsPc-1 cells = assay: Inhibitory activity for AsPc-1 cell proliferation (CCK-8); assay type: cell-based, human
Method: AsPc-1 cells in a well-growing state were collected into a centrifuge tube, adjusted to a cell density of 3 × 10^4 cells/mL, and inoculated onto a 96-well plate (100 µL/well). The compounds were added using a nanoliter pipettor such that the final concentrations of the compounds were 5000 nM-0.31 nM (the addition was performed in duplicate). Meanwhile, a control was set. After 72 h of incubation in the cell incubator, the assay reagent CCK-8 (manufacturer: Dojindo Laboratories; 10 µL/well) was added. After 3 h of incubation in the cell incubator, the absorbance was measured at 450 nm on a PerkinElmer Envision microplate reader. A four-parameter analysis was performed, a dose-response curve was fitted, and IC50 was calculated.

Capan-1 cells = assay: Inhibitory activity for Capan-1 cell proliferation (CCK-8); assay type: cell-based; conditions: 5 days incubation
Method: Capan-1 cells in a well-growing state were collected into a centrifuge tube, adjusted to a cell density of 1.5 × 10^4 cells/mL, and inoculated onto a 96-well plate (100 µL/well). […] Meanwhile, a control was set. After 5 days of incubation in the cell incubator, the assay reagent CCK-8 (manufacturer: Dojindo Laboratories, Beijing; 10 µL/well) was added. After 4 h of incubation in the cell incubator, the absorbance was measured at 450 nm on a PerkinElmer Envision microplate reader. A four-parameter analysis was performed, a dose-response curve was fitted, and IC50 was calculated.

[1] = Homo sapiens, ASPC1, 72 h incubation

Compound	IC50 (AsPc-1 cells; [1]) [nM]	IC50 (Capan-1 cells; Homo sapiens, CAPAN-1, 120 h) [nM]	IC50 (AsPc-1 cells; 72 h incubation) [nM]	IC50 (Capan-1 cells) [nM]
C#Cc1c(F)ccc2cc(O)cc(-c3nc4c5c(nc(OCC67CCCN6CC(F)C7)nc5c3F)N(CC)C(C)CO4)c12 (single isomer, unassigned) [Example 32]	≤ 100	< 100		
CC(c1cccnc1N)N1c2nc(OC[C@@]34CCCN3C[C@H](F)C4)nc3c(F)c(-c4cccc5cccc(Cl)c45)nc(c23)OC[C@@H]1C (some centres unmarked) [Example 115]	≤ 100	< 100		
C#Cc1c(F)ccc2cc(N)cc(-c3nc4c5c(nc(OCC67CCCN6CC(F)C7)nc5c3F)N(C(C)c3cccnc3N)C(C)CO4)c12 (single isomer, unassigned) [Example 54]			≤ 100	< 100
C#Cc1c(F)ccc2cc(O)cc(-c3nc4c5c(nc(OC[C@@]67CCCN6C[C@H](F)C7)nc5c3F)N(CC)CCO4)c12 [Example 3]	100 to 500	100 to 500		
C#Cc1cccc2cccc(-c3nc4c5c(nc(OC[C@@]67CCCN6C[C@H](F)C7)nc5c3F)N(C(C)c3cccnc3N)[C@@H](C)CO4)c12 (single isomer, unassigned) [Example 130]	≤ 100	< 100		
CCc1c(F)ccc2cccc(-c3nc4c5c(nc(OC[C@@]67CCCN6C[C@H](F)C7)nc5c3F)N(C(C)c3cccnc3N)[C@@H](C)CO4)c12 (single isomer, unassigned) [Example 122]	≤ 100	< 100		
C#Cc1c(F)ccc2cc(O)cc(-c3nc4c5c(nc(OC[C@@H]6CC(F)(F)CN6C)nc5c3F)N(C(C)c3cccnc3N)[C@@H](C)CO4)c12 (single isomer, unassigned) [Example 148]	≤ 100	< 100		
[2H]C([2H])(Oc1nc2c3c(nc(-c4cccc5ccc(F)c(C#C)c45)c(F)c3n1)OC[C@H](C)N2C(C)c1cccnc1N)[C@@]12CCCN1C[C@H](F)C2 (single isomer, unassigned) [Example 114]			≤ 100	< 100
[2H]C([2H])(Oc1nc2c3c(nc(-c4cccc5ccc(F)c(C#C)c45)c(F)c3n1)OC[C@H](C)N2C(C)c1cccnc1N)[C@@]12CCCN1C[C@H](F)C2 (single isomer, unassigned) [Example 113]	≤ 100	< 100		
C#Cc1c(F)ccc2cccc(-c3nc4c5c(nc(OCC67CCCN6CC(F)C7)nc5c3F)N(C(C)c3cccnc3N)C(C)CO4)c12 (single isomer, unassigned) [Example 47]	≤ 100	< 100		
C#Cc1c(F)ccc2cc(O)cc(-c3nc4c5c(nc(OC[C@@]67CCCN6C/C(=C\F)C7)nc5c3F)N(C(C)c3cccnc3N)[C@@H](C)CO4)c12 (single isomer, unassigned) [Example 177]			≤ 100	< 100
C#Cc1c(F)ccc2cc(O)cc(-c3nc4c5c(nc(OCC67CCCN6CC(F)C7)nc5c3F)N(C(C)c3cccnc3N)C(C)CO4)c12 (single isomer, unassigned) [Example 40]			≤ 100	< 100
C#Cc1c(F)ccc2cc(O)cc(-c3nc4c5c(nc(OC[C@@H]6CCCN6C)nc5c3F)N(C(C)c3cccnc3N)[C@@H](C)CO4)c12 (single isomer, unassigned) [Example 67]	≤ 100	< 100		
C#Cc1c(F)ccc2cc(O)cc(-c3nc4c5c(nc(OCC6(CN(C)C)CC6)nc5c3F)N(C(C)c3cccnc3N)[C@@H](C)CO4)c12 (single isomer, unassigned) [Example 150]	≤ 100	< 100		
C#Cc1c(F)ccc2cc(O)cc(-c3nc4c5c(nc(OCC6(CN7CCOCC7)CC6)nc5c3F)N(C(C)c3cccnc3N)[C@@H](C)CO4)c12 (single isomer, unassigned) [Example 69]	≤ 100	< 100		
CC(c1cccnc1N)N1c2nc(OC[C@@]34CCCN3C[C@H](F)C4)nc3c(F)c(-c4cc(O)cc5ccccc45)nc(c23)OC[C@@H]1C (single isomer, unassigned) [Example 118]	≤ 100	< 100		
C#Cc1c(F)ccc2cc(O)cc(-c3nc4c5c(nc(OC[C@@]67CCCN6CC(=C)C7)nc5c3F)N(C(C)c3cccnc3N)[C@@H](C)CO4)c12 (single isomer, unassigned) [Example 178]	≤ 100			
[2H]C([2H])(Oc1nc2c3c(nc(-c4cc(O)cc5ccc(F)c(C#C)c45)c(F)c3n1)OC[C@H](C)N2C(C)c1cccnc1N)[C@@]12CCCN1C[C@H](F)C2 (single isomer, unassigned) [Example 71]	≤ 100	< 100		
C#Cc1c(F)ccc2cc(O)cc(-c3nc4c5c(nc(OCC67CCCN6CC(F)C7)nc5c3F)N(C(C)c3cccnc3N)C(C)CO4)c12 (single isomer, unassigned) [Example 39]	≤ 100	< 100		
C#Cc1c(F)ccc2cc(O)cc(-c3nc4c5c(nc(OC[C@@]67CCCN6C/C(=C\F)C7)nc5c3F)N(C(C)c3cccnc3N)[C@@H](C)CO4)c12 (single isomer, unassigned) [Example 176]	≤ 100	< 100		

Now from value to molecule, other results behind:

IC50 (AsPc-1 cells; [1]) [nM]	Compound	IC50 (Capan-1 cells; Homo sapiens, CAPAN-1, 120 h) [nM]	IC50 (AsPc-1 cells; 72 h incubation) [nM]	IC50 (Capan-1 cells) [nM]
≤ 100	C#Cc1c(F)ccc2cc(N)cc(-c3nc4c5c(nc(OCC67CCCN6CC(F)C7)nc5c3F)N(C(C)c3cccnc3N)C(C)CO4)c12 (single isomer, unassigned) [Example 53]	< 100		
≤ 100	C#Cc1c(F)ccc2cc(O)cc(-c3nc4c5c(nc(OCCN6CCCC6)nc5c3F)N(C(C)c3cccnc3N)[C@@H](C)CO4)c12 (single isomer, unassigned) [Example 138]	< 100		
≤ 100	C#Cc1c(F)ccc2cc(N)cc(-c3nc4c5c(nc(OCC67CCCN6CCC7)nc5c3F)N(C(C)c3cccnc3N)[C@@H](C)CO4)c12 (single isomer, unassigned) [Example 164]			
≤ 100	C#Cc1c(F)ccc2cc(O)cc(-c3nc4c5c(nc(N6CC(C)(N(C)C)C6)nc5c3F)N(C(C)c3cccnc3N)[C@@H](C)CO4)c12 (single isomer, unassigned) [Example 156]	< 100		
≤ 100	C#Cc1c(F)ccc2cc(O)cc(-c3nc4c5c(nc(OC[C@@H]6C[C@@H](F)CN6C)nc5c3F)N(C(C)c3cccnc3N)[C@@H](C)CO4)c12 (single isomer, unassigned) [Example 146]	< 100		
≤ 100	C#Cc1c(F)ccc2cc(O)cc(-c3nc4c5c(nc(OC[C@@H]6C[C@H](F)CN6C)nc5c3F)N(C(C)c3cccnc3N)[C@@H](C)CO4)c12 (single isomer, unassigned) [Example 105]	< 100		
≤ 100	CC(c1cccnc1N)N1c2nc(OC[C@@]34CCCN3C[C@H](F)C4)nc3c(F)c(-c4cccc5ccc(F)c(Cl)c45)nc(c23)OC[C@@H]1C (single isomer, unassigned) [Example 124]	< 100		
100 to 500	C#Cc1c(F)ccc2cc(O)cc(-c3nc4c5c(nc(OC[C@@]67CCCN6C[C@H](F)C7)nc5c3F)N(C(C)(C)C)CCO4)c12 [Example 31]	100 to 500		
≤ 100	C#Cc1c(F)ccc2cc(O)cc(-c3nc4c5c(nc(OC[C@@]67CCCN6C[C@H](F)C7)nc5c3F)N(C(C)c3cccnc3N)[C@@H](C)CO4)c12 (some centres unmarked) [Example 38]	< 100		
≤ 100	[2H]C([2H])(Oc1nc2c3c(nc(-c4cc(O)cc5ccc(F)c(C#C)c45)c(F)c3n1)OCCN2C(C)c1cccnc1N)[C@@]12CCCN1C[C@H](F)C2 (some centres unmarked) [Example 51]	< 100		
≤ 100	C#Cc1c(F)ccc2cc(O)cc(-c3nc4c5c(nc(OCCN6CC(F)C6)nc5c3F)N(C(C)c3cccnc3N)[C@@H](C)CO4)c12 (single isomer, unassigned) [Example 172]	< 100		
≤ 100	C#Cc1c(F)ccc2cc(O)cc(-c3nc4c5c(nc(OC[C@@]67CCCN6C[C@H](F)C7)nc5c3F)N(C(C)C)C(C)CO4)c12 (some centres unmarked) [Example 49]			
≤ 100	C#Cc1c(F)ccc2cc(O)cc(-c3nc4c5c(nc(OCC67CCCN6CC(F)C7)nc5c3F)N(C(C)c3cccnc3N)CCO4)c12 (single isomer, unassigned) [Example 36]	< 100		
≤ 100	C#Cc1c(F)ccc2cc(O)cc(-c3nc4c5c(nc(OC[C@@]67CCCN6C[C@H](F)C7)nc5c3F)N(C(C)c3cccnc3N)CCO4)c12 (some centres unmarked) [Example 34]	< 100		
